Measured values: paper PMC10303159, “Conjugation of Triterpenic Acids of Ursane and Oleanane Types with Mitochondria-Targeting Cation F16 Synergistically Enhanced Their Cytotoxicity against Tumor Cells” (Membranes, 2023)

How the values were obtained:
[1] = system: H1299 cells (human non-small cell lung cancer); test: MTT cytotoxicity assay, H1299; format: cell-based; conditions: Homo sapiens, NCI-H1299, 48 h of treatment, mean ± SEM
From the text: (§1) All cell lines used in this study (human non-small cell lung cancer—H1299 (Accession Number—CRL-5803), human lung carcinoma—A549 (Accession Number—CCL-185), human breast adenocarcinoma—MCF-7 (Accession Number—HTB-22), human breast ductal carcinoma—BT474 (Accession Number—HTB-20)) were purchased from American Type Culture Collection (ATCC, Manassas, VA, USA). Human primary dermal fibroblasts (HPDF) derived from a patch of skin of healthy donors (n = 3) were obtained from the biobank of the Institute for Regenerative Medicine, Lomonosov Moscow State University, collection ID: MSU_FB (https://human.depo.msu.ru (accessed on 14 September 2021)). Cells were grown in DMEM media supplemented with 10% fetal bovine serum, 100 μg/mL gentamycin, and 2 mM of glutamine at 37 °C in a 5% CO2 atmosphere.
(§2) To carry out the MTT assay, 3500 cells per well were seeded in 96-well plates. A day after the seeding, triterpenoids or their derivatives dissolved in DMSO were added. DMSO was used as a control. At 48 h after cell seeding, 10 μL of 5 mg/mL Thiazolyl Blue (Paneko, Russia) solution was added to each well and cells were kept for 3 h at 37 °C in a CO2 incubator. After removing the thiazol-containing medium, 150 μL of isopropyl alcohol (supplemented with 40 mM HCl and 0.1% NP-40) was added to dissolve the MTT-formazan salt. The absorbance at 570 and 630 nm (reference) was measured using a BioRad iMark microplate reader (BioRad, Hercules, CA, USA). Four biological replicates were used for the experiment. The results were processed with Excel software (version number: 14.0.6023.1000 (32-bit)). IC50 values were calculated by using AAT Bioquest online calculator (https://www.aatbio.com/tools/ic50-calculator, accessed on 15 May 2023) and are represented as the mean ± SEM.

rat liver mitochondria [2] = test: Mitochondrial membrane potential (TPP-sensitive electrode); format: biochemical; conditions: glutamate + malate or succinate + rotenone, Figure 5
Method: (§3) Mitochondria were obtained from the liver of male Wistar rats (210–250 g) using the differential centrifugation method. The detailed procedure and composition of the isolation media were described earlier. The suspension of isolated mitochondria contained about 60–70 mg of mitochondrial protein per ml (determined by the Bradford method).
The mitochondrial membrane potential (Δψ) was measured using a penetrating tetraphenylphosphonium bromide (TPP) cation and a TPP-sensitive electrode (Nico-Analyte Ltd., Moscow, Russia) as described previously. The concentration of mitochondrial protein was 1 mg/mL.

[3] = system: Human primary dermal fibroblasts (HPDF); test: MTT cytotoxicity assay, HPDF; format: cell-based
From the text: as §1
as §2, with “A day after the seeding, triterpenoids or their derivatives dissolved in DMSO were added.” left out, “At 48 h after cell seeding, 10 μL of 5 mg/mL Thiazolyl Blue (Paneko, Russia) solution was added to each well and cells were kept for 3 h at 37 °C in a CO2 incubator.” left out

[4] = system: A549 cells (human lung carcinoma); test: MTT cytotoxicity assay, A549; format: cell-based; conditions: Homo sapiens, A549, 48 h, MTT assay, 48 h of treatment, mean ± SEM
From the text: as §1
as §2, with “A day after the seeding, triterpenoids or their derivatives dissolved in DMSO were added.” left out, “At 48 h after cell seeding, 10 μL of 5 mg/mL Thiazolyl Blue (Paneko, Russia) solution was added to each well and cells were kept for 3 h at 37 °C in a CO2 incubator.” left out

[5] = system: MCF-7 cells (human breast adenocarcinoma); test: MTT cytotoxicity assay, MCF-7; format: cell-based
From the text: as §1, §2

rat liver mitochondria [6] = test: Mitochondrial H2O2 generation (Amplex Red); format: biochemical; conditions: 5 μM
Method: as §3
The fluorescent probe Amplex Red (λex = 560 nm; λem = 590 nm) and a plate reader Varioskan Lux were used to register mitochondrial H2O2 generation. In this case, 0.15 mg of mitochondrial protein was incubated in the buffer containing 210 mM mannitol, 70 mM sucrose, 10 μM EGTA, 10 µM Amplex Red, 1 µM rotenone, 10 µM EGTA, horseradish peroxidase (HRP 1 a.u./mL), 10 mM Hepes/KOH, and at a pH of 7.4. […] The kinetics of H2O2 generation was recorded for three minutes.

BT474 cells = test: Oxidative stress assay (Muse Oxidative Stress Kit), BT474; format: cell-based, human; conditions: BT474, 2 μM
Method: Oxidative stress was assessed after cell culture and incubation (as described above). For this, cells were harvested by trypsinization, washed with ice-cold PBS buffer (pH 7.4), and centrifuged (1000 rpm, 5 min). The resulting cells were resuspended in PBS. Cell population analysis for oxidative stress was performed on a Muse cell analyzer (Merck Millipore, Burlington, MA, USA) using the Muse Oxidative Stress Kit (MCH100111) according to the manufacturer’s protocol.

[7] = system: BT474 cells (human breast ductal carcinoma); test: MTT cytotoxicity assay, BT474; format: cell-based; conditions: BT-474, 48 h of treatment, mean ± SEM
From the text: as §1, §2

rat liver mitochondria [8] = test: Respiration of isolated mitochondria fueled by succinate; format: biochemical
Method: as §3
(§4) The rate of O2 consumption by mitochondrial samples was estimated using Oxygraph Plus (Hansatech Instruments Ltd., Pentney, King’s Lynn, UK). The reaction medium included 200 mM sucrose, 20 mM KCl, 0.5 mM EGTA, 5 mM KH2PO4, and 10 mM Hepes/KOH, pH 7.4. The following combinations of substrates and reagents were used: 2.5 mM potassium glutamate + 2.5 mM potassium malate and 5 mM potassium succinate + 1 µM rotenone. Under these conditions, it is possible to assess the oxygen-consuming capacity of mitochondria through complexes I and II of the electron transport chain. To determine the rates of the phosphorylating respiration (State 3) and uncoupled respiration (State 3UDNP) of the mitochondria, 200 µM ADP and 50 µM 2,4-dinitrophenol (DNP) were added sequentially. The concentration of mitochondrial protein was 1 mg/mL.

rat liver mitochondria [9] = test: Respiration of isolated mitochondria fueled by glutamate and malate; format: biochemical
Method: as §3, §4

Structure (SMILES): CC1(C)CCC2(C(=O)OCCCC[n+]3ccc(C=Cc4c[nH]c5ccccc45)cc3)CCC3(C)C(=CCC4C5(C)CCC(O)C(C)(C)C5CCC43C)C2C1 (stereo not shown) [OA-F16]
- IC50 [1]: 930 ± 70 nM
- Effect on membrane potential of organelles (rat liver mitochondria [2]): the most effective
- IC50 ([3]; Homo sapiens, Fibroblast, MTT assay, 48 h of treatment, mean ± SEM): 2050 ± 580 nM
- Selectivity index (SI) ([3]; between tumor cells H1299, A549 and MCF-7 and fibroblasts): 1.3–2.8
- IC50 [4]: 740 ± 90 nM
- IC50 ([5]; Homo sapiens, MCF7, MTT assay, 48 h of treatment, mean ± SEM): 1520 ± 160 nM
- Chou–Talalay combination index (CI) ([5]; MCF7 cells, based on IC50 values for parent acid, F16 [23] and conjugate, CI < 1 synergism): 0.03
- Effect on production of H2O2 by organelles (rat liver mitochondria [6]): antioxidant effect
- Effect on level of ROS-positive cells (BT474 cells): significantly increase the level of ROS-positive cells
- IC50 [7]: 4.34 ± 0.28 µM
- ADP/O (rat liver mitochondria [8]; 10 μM): 1.41 ± 0.09 rel. un.
- RC (state 3/state 4) (rat liver mitochondria [8]; 10 μM): 2.83 ± 0.20 rel. un.
- State 2 respiration (rat liver mitochondria [8]; 10 μM): 14.39 ± 0.65 nmol O2/min/mg Protein
- State 3UDNP respiration (rat liver mitochondria [8]; 10 μM): 69.57 ± 1.73 nmol O2/min/mg Protein
- State 3 respiration (rat liver mitochondria [8]; 10 μM): 48.46 ± 0.82 nmol O2/min/mg Protein
- State 4 respiration (rat liver mitochondria [8]; 10 μM): 17.22 ± 0.93 nmol O2/min/mg Protein
- ADP/O (rat liver mitochondria [8]; 20 μM): 1.15 ± 0.05 rel. un.
- RC (state 3/state 4) (rat liver mitochondria [8]; 20 μM): 1.25 ± 0.10 rel. un.
- State 2 respiration (rat liver mitochondria [8]; 20 μM): 14.05 ± 0.18 nmol O2/min/mg Protein
- State 3UDNP respiration (rat liver mitochondria [8]; 20 μM): 56.46 ± 4.21 nmol O2/min/mg Protein
- State 3 respiration (rat liver mitochondria [8]; 20 μM): 41.57 ± 1.36 nmol O2/min/mg Protein
- State 4 respiration (rat liver mitochondria [8]; 20 μM): 33.23 ± 0.75 nmol O2/min/mg Protein
- ADP/O (rat liver mitochondria [9]; 10 μM): 2.80 ± 0.13 rel. un.
- RC (state 3/state 4) (rat liver mitochondria [9]; 10 μM): 2.24 ± 0.11 rel. un.
- State 2 respiration (rat liver mitochondria [9]; 10 μM): 6.47 ± 0.27 nmol O2/min/mg Protein
- State 3UDNP respiration (rat liver mitochondria [9]; 10 μM): 31.34 ± 0.49 nmol O2/min/mg Protein
- State 3 respiration (rat liver mitochondria [9]; 10 μM): 23.82 ± 0.53 nmol O2/min/mg Protein
- State 4 respiration (rat liver mitochondria [9]; 10 μM): 10.65 ± 0.24 nmol O2/min/mg Protein
- ADP/O (rat liver mitochondria [9]; 20 μM): 0.64 ± 0.05 rel. un.
- RC (state 3/state 4) (rat liver mitochondria [9]; 20 μM): 1.03 ± 0.04 rel. un.
- State 2 respiration (rat liver mitochondria [9]; 20 μM): 15.38 ± 0.30 nmol O2/min/mg Protein
- State 3UDNP respiration (rat liver mitochondria [9]; 20 μM): 23.24 ± 0.61 *#^γ nmol O2/min/mg Protein
- State 3 respiration (rat liver mitochondria [9]; 20 μM): 17.02 ± 0.97 nmol O2/min/mg Protein
- State 4 respiration (rat liver mitochondria [9]; 20 μM): 16.55 ± 0.54 nmol O2/min/mg Protein
